Legend:
[1] = Stability of multibiotic agents in Simulated Gastric Fluid (SGF); assay type: in vitro ADME; conditions: simulated gastric fluid pH 1.6 with pepsin, 37° C., 1 μM
In short: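 Compounds were incubated at 1 μM final at 37 °C in simulated gastric fluid containing NaCl, pH 1.6, with FaSSIF powder and 0.1 mg/mL pepsin. Aliquots were taken at T0 and at regular intervals and quenched with acetonitrile. Degradation rates were determined by LC/MS.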

[2] = Stability of multibiotic agents in Simulated Intestinal Fluid (SIF); assay type: in vitro ADME; conditions: simulated intestinal fluid pH 6.7 with pancreatin, 37° C., 1 μM
In short: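 Compounds at 1 μM final (from 1 mM DMSO stock) incubated at 37 °C with agitation in fresh SIF (FaSSIF plus pancreatin in pH 6.7 phosphate buffer). Aliquots taken at T0 and regular intervals, quenched with 1 volume acetonitrile. Degradation rate determined by LC/MS.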

Structure (SMILES)	Assay 2 (SGF) (% Remaining @ 4 hours) [1]	Assay 3 (SIF) (% @ Remaining 4 hours) [2]
CCCC(=O)OCC(C)(C)[C@@H](OC(=O)CCC)C(=O)NCCC(N)=O [Example 95, [(3R)-4-[(3-amino-3-oxo-propyl)amino]-3-butanoyloxy-2,2-dimethyl-4-oxo-butyl] butanoate]	C (>75% of the tested compound remaining)	C (>75% of the tested compound remaining)
CCCC(=O)OCc1cnc(C)c(OC(=O)CCC)c1COC(=O)CCC [Example 100, [5-butanoyloxy-4-(butanoyloxymethyl)-6-methyl-3-pyridyl]methyl butanoate]	C (>75% of the tested compound remaining)	C (>75% of the tested compound remaining)
CCCC(=O)OCC(OC(=O)CCC)[C@@H](OC(=O)CCC)[C@H](OC(=O)CCC)C(OC(=O)CCC)C(=O)O (stereo in doubt) [Example 113, (2S,3S,4R,5S)-2,3,4,5,6-penta(butanoyloxy)hexanoic acid]	C (>75% of the tested compound remaining)	B (25-75% of the tested compound remaining)
C[C@@H]1CCOC(C)(C(=O)Oc2ccc(/C=C/c3cc(OC(=O)C4(C)OCC[C@@H](C)O4)cc(OC(=O)C4(C)OCC[C@@H](C)O4)c3)cc2)O1 (stereo partly drawn) [Example 182, [4-[(E)-2-[3,5-bis[[(4R)-2,4-dimethyl-1,3-dioxane-2-carbonyl]oxy]phenyl]vinyl]phenyl] (4R)-2,4-dimethyl-1,3-dioxane-2-carboxylate]	C (>75% of the tested compound remaining)	C (>75% of the tested compound remaining)
CCCC(=O)OCC1(OC(=O)CCC)OC[C@@H](OC(=O)CCC)[C@H](OC(=O)CCC)[C@@H]1OC(=O)CCC (stereo partly drawn) [Example 163, [(3S,4S,5R)-2,3,4,5-tetra(butanoyloxy)tetrahydropyran-2-yl]methyl butanoate]	B (25-75% of the tested compound remaining)	A (<25% of the tested compound remaining)
CCCC(=O)O[C@H]1[C@@H](OC(=O)CCC)COC(Oc2ccccc2C(=O)O)[C@@H]1OC(=O)CCC (stereo partly drawn) [Example 141, 2-[(3R,4S,5S)-3,4,5-tri(butanoyloxy)tetrahydropyran-2-yl]oxybenzoic acid]	C (>75% of the tested compound remaining)	A (<25% of the tested compound remaining)
CCCC(=O)O[C@H](C)CC(=O)OCc1cnc(C)c(OC(=O)C[C@@H](C)OC(=O)CCC)c1COC(=O)C[C@@H](C)OC(=O)CCC [Example 101, [5-[(3R)-3-butanoyloxybutanoyl]oxy-4-[[(3R)-3-butanoyloxybutanoyl]oxymethyl]-6-methyl-3-pyridyl]methyl (3R)-3-butanoyloxybutanoate]	C (>75% of the tested compound remaining)	C (>75% of the tested compound remaining)
CCCC(=O)Oc1ccc(/C=C/C(=O)CC(=O)/C=C/c2ccc(OC(=O)CCC)c(OC)c2)cc1OC [Example 14, [4-[(1E,6E)-7-(4-butanoyloxy-3-methoxy-phenyl)-3,5-dioxo-hepta-1,6-dienyl]-2-methoxy-phenyl] butanoate]	C (>75% of the tested compound remaining)	C (>75% of the tested compound remaining)
C[C@@H](O)CC(=O)OCC(C)(C)[C@@H](OC(=O)C[C@@H](C)O)C(=O)NCCC(N)=O [Example 114, [(3R)-4-[(3-amino-3-oxo-propyl)amino]-3-[(3R)-3-hydroxybutanoyl]oxy-2,2-dimethyl-4-oxo-butyl] (3R)-3-hydroxybutanoate]	C (>75% of the tested compound remaining)	C (>75% of the tested compound remaining)
Cc1ncc(CO)c(COC(=O)/C=C/c2c[nH]c3ccccc23)c1OC(=O)/C=C/c1c[nH]c2ccccc12 [Example 142, [5-(hydroxymethyl)-3-[(E)-3-(1H-indol-3-yl)prop-2-enoyl]oxy-2-methyl-4-pyridyl]methyl (E)-3-(1H-indol-3-yl)prop-2-enoate]	C (>75% of the tested compound remaining)	C (>75% of the tested compound remaining)
CCCC(=O)O[C@H](C)CC(=O)OCC(C)(C)[C@@H](OC(=O)C[C@@H](C)OC(=O)CCC)C(=O)NCCC(N)=O [Example 96, [(3R)-4-[(3-amino-3-oxo-propyl)amino]-3-[(3R)-3-butanoyloxybutanoyl]oxy-2,2-dimethyl-4-oxo-butyl] (3R)-3-butanoyloxybutanoate]	C (>75% of the tested compound remaining)	C (>75% of the tested compound remaining)
C[C@@H](O)CC(=O)NCCCN(CCCCN(CCCNC(=O)C[C@@H](C)O)C(=O)C[C@@H](C)O)C(=O)C[C@@H](C)O [Example 136, (3R)-3-hydroxy-N-[3-[[(3R)-3-hydroxybutanoyl]-[4-[[(3R)-3-hydroxybutanoyl]-[3-[[(3R)-3-hydroxybutanoyl]amino]propyl]amino]butyl]amino]propyl]butanamide]	C (>75% of the tested compound remaining)	C (>75% of the tested compound remaining)
CCCC(=O)OC[C@H]1OC(OC(=O)CCC)[C@H](OC(=O)CCC)[C@@H](OC(=O)CCC)[C@@H]1OC(=O)CCC (stereo partly drawn) [Example 160, [(2R,3R,4S,5R)-3,4,5,6-tetra(butanoyloxy)tetrahydropyran-2-yl]methyl butanoate]	C (>75% of the tested compound remaining)	A (<25% of the tested compound remaining)
CC(=O)Oc1ccc(-c2oc3cc(OC(C)=O)cc(OC(C)=O)c3c(=O)c2OC(C)=O)cc1 [Example 169, [4-(3,5,7-triacetoxy-4-oxo-chromen-2-yl)phenyl] acetate]	C (>75% of the tested compound remaining)	A (<25% of the tested compound remaining)
CC(=O)OCc1cnc(C)c(O)c1COC(C)=O [Example 80, [4-(acetoxymethyl)-5-hydroxy-6-methyl-3-pyridyl] methyl acetate]	C (>75% of the tested compound remaining)	C (>75% of the tested compound remaining)
CC(=O)OC[C@H]1O[C@@H](Oc2c(C)c(C)c3c(c2C)CC[C@@](C)(CCC[C@H](C)CCC[C@H](C)CCCC(C)C)O3)[C@H](OC(C)=O)[C@@H](OC(C)=O)[C@@H]1OC(C)=O [Example 180, [(2R,3R,4S,5R,6S)-3,4,5-triacetoxy-6-[(2R)-2,5,7,8-tetramethyl-2-[(4R,8R)-4,8,12-trimethyltridecyl]chroman-6-yl]oxy-tetrahydropyran-2-yl]methyl acetate]	C (>75% of the tested compound remaining)	C (>75% of the tested compound remaining)
CCCC(=O)/N=C(/NCCCCNC(=O)CCC)NC(=O)CCC [Example 134, N-[4-[[(Z)—N,N′-di(butanoyl)carbamimidoyl]amino]butyl]butanamide]	C (>75% of the tested compound remaining)	C (>75% of the tested compound remaining)
CCCC(=O)NCCC[C@H](NC(=O)CCC)C(=O)O [Example 133, (2S)-2,5-bis(butanoylamino)pentanoic acid]	C (>75% of the tested compound remaining)	C (>75% of the tested compound remaining)
CC(=O)O[C@H]1CO[C@H]2[C@@H]1OC[C@H]2OC(C)=O [Example 88, [(3S,3aR,6R,6aR)-6-acetoxy-2,3,3a,5,6,6a-hexahydrofuro[3,2-b]furan-3-yl] acetate]	C (>75% of the tested compound remaining)	C (>75% of the tested compound remaining)
O=C(Cc1c[nH]c2ccccc12)O[C@@H]1OC[C@@H](OC(=O)Cc2c[nH]c3ccccc23)[C@@H](OC(=O)Cc2c[nH]c3ccccc23)[C@H]1OC(=O)Cc1c[nH]c2ccccc12 [Example 146, [(3R,4R,5R,6S)-4,5,6-tris[[2-(1H-indol-3-yl)acetyl]oxy]tetrahydropyran-3-yl] 2-(1H-indol-3-yl)acetate]	C (>75% of the tested compound remaining)	A (<25% of the tested compound remaining)
CCCC(=O)O[C@H]1[C@H](OC(=O)CCC)[C@H](OC(=O)CCC)[C@@H](OC)[C@H](OC(=O)CCC)[C@H]1OC(=O)CCC [Example 85, (1R,2R,3R,4S,5R,6R)-2,3,4,6-tetrakis(butanoyloxy)-5-methoxycyclohexyl butanoate]	C (>75% of the tested compound remaining)	C (>75% of the tested compound remaining)
CCCC(=O)OCCCNC(=O)[C@H](OC(=O)CCC)C(C)(C)COC(=O)CCC [Example 90, 3-[[(2R)-2,4-di(butanoyloxy)-3,3-dimethyl-butanoyl]amino] propyl butanoate]	C (>75% of the tested compound remaining)	A (<25% of the tested compound remaining)

Reference: patent US20230293458A1, “MULTIBIOTIC AGENTS AND METHODS OF USING THE SAME” (Flagship Pioneering Innovations V, Inc., priority 2017, published 2023)
